Assay results published in patent US6103875A, “Antifungal compounds from pseudomonas viridiflava” (Pharmagenesis, Inc., priority 1997, dated 2000).
Converted amounts (≈) assume the structure as drawn.

Tests used:
[1] = test system: Cryptococcus neoformans 90012; assay: Minimal inhibitory concentration test (modified NCCLS protocol); type: cell-based, Cryptococcus neoformans (ATCC 90012)
Description: (§1) All fungi used for test purposes for sensitivity to the ecomycins were obtained from the ATCC or from the mycological collection at Montana State University, Bozeman, Mont.
(§2) Samples of the semi-purified ecomycin preparation, purified Ecomycin A, and Ecomycin B were tested, along with a known antifungal compound, Amphotericin B, in a minimal inhibitory concentration test (MIC) modification of the NCCLS protocol (Galgiani, et al., 1995).

[2] = test system: Candida parasilopsis 90018; assay: as above; type: cell-based, Candida parasilopsis (ATCC 90018)
Description: as §1, §2

Candida albicans = assay: Synergy with amphotericin B, inhibition of growth in 96-well plates; type: cell-based
Description: Briefly, in turning now to the illustrative experiments described in Example 11, varying amounts of amphotericin B were added to varying concentrations of an exemplary composition containing the antifungal lipopeptides of the present invention, extract EB-273, followed by a determination of the resulting inhibition of growth of Candida albicans.
Experiments were conducted with the semi-purified preparation of ecomycins (extract EB-273), added individually or in combination with sub-fungicidaldoses of Amphotericin B, to 96-well plates inoculated with C. albicans.

[3] = cited from earlier work
[4] = test system: Cryptococcus neoformans 90013; assay: Minimal inhibitory concentration test (modified NCCLS protocol); type: cell-based, Cryptococcus neoformans (ATCC 90013)
Description: as §1, §2

[5] = Thomas, 1986; cited from earlier work
Candida glabrata 90030 = assay: Minimal inhibitory concentration test (modified NCCLS protocol); type: cell-based, Candida glabrata (ATCC 90030); details: Nakaseomyces glabratus
Description: as §1, §2

Candida kefir 46764 = assay: as above; type: cell-based, Candida kefir (ATCC 46764)
Description: as §1, §2

Candida albicans 90029 = assay: as above; type: cell-based, Candida albicans (ATCC 90029)
Description: as §1, §2

Candida albicans 90028 = assay: as above; type: cell-based, Candida albicans (ATCC 90028)
Description: as §1, §2

C[C@@H]1[C@H](O)[C@@H](C)/C=C/C=C/C=C/C=C/C=C/C=C/C=C/[C@H](O[C@@H]2O[C@H](C)[C@@H](O)[C@H](N)[C@@H]2O)C[C@@H]2O[C@](O)(C[C@@H](O)C[C@@H](O)[C@H](O)CC[C@@H](O)C[C@@H](O)CC(=O)O[C@H]1C)C[C@H](O)[C@H]2C(=O)O [Amphotericin B]
MIC [1]: 0.1 µg/mL (≈ 0.108 µM)
MIC [2]: 0.1 µg/mL (≈ 0.108 µM)
inhibition at 0.035 µg/mL (Candida albicans; Candida albicans, read-out: inhibitory effect): ~30%
inhibition at 0.07 µg/mL (Candida albicans; Candida albicans, amphotericin B alone, 70 ng/ml, read-out: inhibitory effect): ~25%
inhibition at 0.105 µg/mL (Candida albicans; Candida albicans, amphotericin B alone, 105 ng/ml, read-out: inhibitory effect): ~43%
inhibition at 0.14 µg/mL (Candida albicans; Candida albicans, amphotericin B alone, 140 ng/ml, read-out: inhibitory effect): ~55%
inhibition at 0.175 µg/mL (Candida albicans; Candida albicans, amphotericin B alone, 175 ng/ml, read-out: inhibitory effect): ~84%
enhancement of inhibitory effect (Candida albicans; amphotericin B 70 ng/ml + extract EB-273 about 8-12 μg/ml or greater vs. amphotericin B alone): nearly four-fold
inhibitory effect (Candida albicans; amphotericin B 70 ng/ml + extract EB-273 at about 8-12 μg/ml or greater): ~100%
enhancement of activity (Candida albicans; amphotericin B 105 ng/ml + extract EB-273 vs. amphotericin B alone): approximate two-fold enhancement
enhancement of activity (Candida albicans; amphotericin B 140 ng/ml + extract EB-273 vs. amphotericin B alone): approximate two-fold enhancement
interaction between amphotericin B and ecomycin extract (isobolographic analyses) (Candida albicans; amphotericin B + ecomycin extract EB-273, range of dosage responses): synergistic rather than additive
inhibition of C. albicans (Candida albicans; amphotericin B alone, 210 ng/ml): nearly complete inhibition
reduction of amount of amphotericin B required to effectively suppress growth of Candida (Candida albicans; in combination with the lipopeptides composition): at least 30%
reduction of amphotericin B concentration required for substantially complete inhibition (Candida albicans; with EB-273, [210 ng/ml-175 ng/ml]/210×100): 16%
reduction of amphotericin B concentration required for substantially complete inhibition (Candida albicans; with a suitable concentration of EB-273, fourth of four): 66%
reduction of amphotericin B concentration required for substantially complete inhibition (Candida albicans; with a suitable concentration of EB-273, second of four): 33%
reduction of amphotericin B concentration required for substantially complete inhibition (Candida albicans; with a suitable concentration of EB-273, third of four): 50%
oral absorption [3]: not adsorbed orally
MIC [4]: 0.3 µg/mL (≈ 0.325 µM)
toxicity, undesirable side-effects [5]: leucopenia, thrombocytopenia, renal tubular acidosis, hypokalemia, hypomagnesemia, headaches, nausea, and anemia
MIC (Candida glabrata 90030): 0.6 µg/mL (≈ 0.649 µM)
MIC (Candida kefir 46764): 0.1 µg/mL (≈ 0.108 µM)
MIC (Candida albicans 90029): 0.6 µg/mL (≈ 0.649 µM)
MIC (Candida albicans 90028): 0.6 µg/mL (≈ 0.649 µM)
